Laboratory results taken from paper PMC7214178, “Ligand‐specific recycling profiles determine distinct potential for chronic analgesic tolerance of delta‐opioid receptor (DOPr) agonists” (Journal of Cellular and Molecular Medicine, 2020).

How the values were obtained:
[1] = test system: rat model of streptozotocin (STZ)‐induced diabetic neuropathy; assay: Acute anti‐allodynic dose‐response after single i.t. injection (von Frey); type: in vivo; conditions: for Analgesia 60 min after injection vs vehicle: i.t. doses that reached maximal effect, one‐way ANOVA vs control, n = 3‐4; for Area under the curves, pEC50 ± SEM (M) / Peak analgesic response, pEC50 ± SEM (M): i.t. in 30 μL; for Area under the curves, pEC50 ± SEM (M) / Area under the curves, Relative EMAX ± SEM: analgesic response integrated over time (AUC); for Area under the curves, pEC50 ± SEM (M) / Peak analgesic response, pEC50 ± SEM (M) / Peak analgesic response, Relative EMAX ± SEM: four‐parameter logistic fit; for Area under the curves, pEC50 ± SEM (M) / Peak analgesic response, pEC50 ± SEM (M) / Area under the curves, Relative EMAX ± SEM / Peak analgesic response, Relative EMAX ± SEM: 3‐4 rats/dose; for Peak analgesic response, pEC50 ± SEM (M) / Peak analgesic response, Relative EMAX ± SEM: mechanical withdrawal threshold 30 min after injection; for Area under the curves, Relative EMAX ± SEM / Peak analgesic response, Relative EMAX ± SEM: normalized to maximal asymptote of agonist with largest effect
Description: Adult male Sprague Dawley (SD) rats, weighing 235‐250 g, were purchased from Charles River laboratories and housed in a controlled environment on a 12‐hour light/dark cycle with free access to food and water. All experimental methods and animal care procedures were approved by the Animal Care Committee of University of Montreal (CDEA protocol 15‐013), in accordance with the guiding principles as enunciated by the Canadian Council on Animal Care.
Type I diabetes was induced by systemic injection of streptozotocin (STZ, 65 mg/kg, i.p.) according to a standardized methodology, which allows development of persistent diabetic neuropathy after the first week of treatment. ^20 At the end of the first week, blood was extracted from the tail vein and blood glucose levels were measured with a glucometer (Accu‐Chek Aviva; Roche Diagnostics) prior to evaluation of analgesia on the second week.
Mechanical allodynia is the consequence of maladaptive neuroplasticity following nerve damage. ^24 In a model of diabetic neuropathy as the one used in this study, hyperglycaemia contributes to generate reactive oxygen species which induce microglia activation and inflammatory mediators. ^25 , ^26 These mediators attenuate the activity of Gly/GABA interneurons in superficial layers ^24 , ^27 , ^28 , ^29 and disrupt the inhibitory control that prevents innocuous touch stimuli from producing pain which leads to allodynia. ^30 DOPrs are expressed in these light‐touch mechanoreceptors ^31 and up‐regulated during sensitization, ^32 , ^33 making DOPr agonists elective for relieving this type of pain. Allodynia was evaluated using Von Frey filaments as previously described. ^19 Briefly, rats were accustomed for 15 min on a metal mesh floor under an inverted plastic box (20 × 10 × 10 cm) in a quiet room dedicated to this behavioural test. After habituation, the plantar surface of the right and left hind legs was alternately touched (6‐8 seconds) with von Frey filaments of progressively wider diameter in order to find the threshold of pressure required to produce withdrawal. The mechanical threshold response was obtained by consigning the pressure in grams that would result in withdrawal of the paw in 50% of 10 trials. A normal rat responds to tactile pressures of 12‐15 g whereas neuropathic rats respond to pressures of 4‐6 g. ^24
In a first series of experiments, dose‐response curves to SNC‐80, SB235863, deltorphin II and TIPP were constructed following intrathecal (i.t.) injection of increasing doses until no increment in maximal anti‐allodynic response was observed. […] Each group of rats received only one ligand and a single dose per day. Saturation of the analgesic response on mechanical allodynia required assessing 5‐6 doses per ligand administered over a period of 5‐6 days, using 3‐4 animals/dose. Injections were made at mid‐lumbar level with a needle 23G × 1/2 under light anaesthesia using 4% isoflurane inhalation in a 1:1 mixture of oxygen and air. The animals were allowed to recover for 15 minutes before mechanical thresholds were determined. Threshold measures were repeated every 15 minutes until the analgesic response disappeared. Peak analgesic responses (30 minutes) or responses integrated over time (area under the curve: AUC) were consigned and plotted as a function of treatment dose. Curves were fitted with the four‐parameter logistic equation in GraphPad 7 to yield ED80 and ED50 values that were then used to treat rats for assessment of chronic tolerance. For each drug, the stock solution was prepared as follows: deltorphin II was dissolved in sterile artificial cerebrospinal fluid (CSF); TIPP and SB235863 stocks were dissolved in sterile water and SNC‐80 in DMSO. Each stock solution was diluted in CSF at required concentrations and injected i.t. in a final volume of 30 μL. Control animals were injected with 30 μL of CSF. At the end of behavioural experiments, rats were anaesthetized by isoflurane and killed by decapitation.

DOPr = test system: DOPr; set-up: method as in PMID 24174495; conditions: cited from earlier work
[2] = peptidic ligands; cited from earlier work
[3] = test system: endothelin‐converting enzyme 2 (ECE2); conditions: endosomal protease that functions at acidic pH; cited from earlier work
Description: Indeed, deltorphin II is a naturally occurring opioid peptide ^32 and TIPP is an opioid peptide analogue. ^33 On the other hand, SNC‐80 ^34 and SB235863 ^35 are synthetic, non‐peptide ligands.

[4] = i.t., anti‐allodynic effect, STZ rats

Compound	Analgesia 60 min after injection vs vehicle [1]	Area under the curves, pEC50 ± SEM (M) ([1]; STZ rats)	Peak analgesic response, pEC50 ± SEM (M) ([1]; STZ rats)	Area under the curves, Relative EMAX ± SEM ([1]; i.t., STZ rats)	Peak analgesic response, Relative EMAX ± SEM ([1]; i.t., STZ rats)	ED80 derived from dose‐response curves [1, 4]	Internalization in HEK cells (DOPr)	ED50 (challenge dose) [1, 4]	Blood‐brain barrier penetration [2]	Substrate of ECE2 [3]
CCC(C)COC(=O)c1[nH]c2c(c1C)CC1C3Cc4ccc(OC)c5c4C1(CCN3C)C2O5.Cl (stereo not drawn) [SB235863, [8R‐(4bS*,8aα,8aβ,12bβ)]7,10‐dimethyl‐1‐methoxy‐11‐(2‐ethylpropyl)oxycarbonyl 5,6,7,8,12,12b‐hexahydro‐(9H)‐4,8‐methanobenzofuro[3,2‐e]pyrrolo[2,3‐g]isoquinoline hydrochloride]	still present	4.44 ± 0.03 M	4.50 ± 0.05 M	100.6 ± 5.1	84.4 ± 8.8	1.7 nmol/30 μL	minimal internalization			
C=CCN1C[C@H](C)N([C@H](c2ccc(C(=O)N(CC)CC)cc2)c2cccc(OC)c2)C[C@H]1C [SNC‐80, (+)‐4‐[(αR)‐α‐((2S,5R)‐4‐allyl‐2,5‐dimethyl‐1‐piperazinyl)‐3‐methoxybenzyl]‐N,N‐diethylbenzamide]	no longer significantly different from vehicle	4.95 ± 0.18 M	5.15 ± 0.06 M	87.9 ± 22.1	100 ± 7.8	0.55 nmol/30 μL	marked internalization			
deltorphin II	no longer significantly different from vehicle	5.09 ± 0.05 M	5.22 ± 0.86 M	80.5 ± 8.0	91.0 ± 9.0	0.30 nmol/30 μL	marked internalization	0.23 nmol/30 μL	poor blood‐brain barrier penetration	one of the ECE2 substrates
